This passage reports IC50 results from patent publication US11718628B2, “SREBP inhibitors comprising a 6-membered central ring” (Capulus Therapeutics, LLC, priority 2018, dated 2023).

As usually defined, the IC50 is the concentration needed to halve the response being measured.

This assay relates to SREBP. Kind of assay: Reporter screening assay (SRE-luciferase reporter construct). Type of assay: cell-based. The following applies: Homo sapiens; SREBPv1 reporter cell line HepG2, 24 hours, 0.01 uM to 10 uM; read-out: Reporter Screening IC50 (nM) Activity Range. How it is done:
This assay was used to evaluate the effect on transcriptional activity SREBP of the compounds synthesized according to Examples 1-16, 20, and 22, using an SRE-luciferase reporter construct. On day 1, 10,000 cells were seeded in a 96 well (white) plate as per the plate map in Growth media without antibiotics. Cells were incubated at 37° C. for 8 hours. After 8 hours, cells were washed with DPBS for complete removal of FBS. DPBS was completely removed and Growth media was replaced with phenol free treatment medium (90 μl) with different FBS concentrations. The cells were then incubated at 37° C. for 24 hours with varying doses (0.01 uM to 10 uM) of compounds. Then a Luciferase assay was performed.
Reagents for performing Luciferase assay were stored at −20° C. To a tube of lyophilized assay substrate was added 1 mL Substrate Solvent and mixed well. The Substrate tube after reconstitution was covered with aluminum foil so as to keep it protected from light. The assay buffer was thawed to room temperature. To 20 mL Assay Buffer was added 200 μL of reconstituted 100× Substrate and mixed well. The reconstituted substrate as well as the assay solution (buffer+substrate) was protected from light throughout the procedure by keeping it covered with aluminum foil.
Using a multi-channel pipette, 100 μL Assay Solution (buffer+substrate) was added directly to each sample well in Plate 1, which was incubated for 30 min (plate was covered with aluminum foil). After 30 min incubation, the plate was read for total luminescence. Each well was read for 2 seconds in a plate luminometer. (Microplate reader Envision Microplate reader from Perkin Elmer). Precaution was taken to incubate plate exactly for 30 min prior to reading on the plate reader.
Materials: SREBPv1 Reporter cell line: HepG2—#32251. Growth Medium: MEM (Corning 10-010), 10% FBS, 1% GlutaMax (Invitrogen Catalog #35050061), […] (Invitrogen Catalog #A1113803) and 1% Penicillin-Streptomycin (Pen-Strep). Treatment Media: Phenol-free MEM (Invitrogen Catalog #51200-038) and 1% GlutaMax (Invitrogen Catalog #35050061). Luciferase Assay: LightSwitch Luciferase Assay Kit (Catalog #32032). LDH assay: Pierce LDH Cytotoxicity Assay Kit (Catalog #SD249616).
For `CC(C)(C)c1cc(-c2cc(-c3ccc(C(=O)N4CCC(O)CC4)cc3Cl)ccn2)ccn1` [Compound 1, (4-(2′-(tert-butyl)-[2,4′-bipyridin]-4-yl)-3-chlorophenyl)(4-hydroxypiperidin-1-yl)methanone], the IC50 was at most 1000 nM.
Regarding `CC(C)(C)c1cc(-c2ccnc(-c3ccc(C(=O)N4CCC(O)CC4)cc3Cl)c2)ccn1` [Compound 2, (4-(2′-(tert-butyl)-[4,4′-bipyridin]-2-yl)-3-chlorophenyl)(4-hydroxypiperidin-1-yl)methanone], the IC50 was at most 500 nM.
The result for `CC(C)(C)c1cc(-c2cccc(-c3ccc(C(=O)N4CCC(O)CC4)cc3Cl)n2)ccn1` [Compound 3, (4-(2′-(tert-butyl)-[2,4′-bipyridin]-6-yl)-3-chlorophenyl)(4-hydroxypiperidin-1-yl)methanone] reads at most 1000 nM.
The result for `CC(C)(C)c1cc(-c2cncc(-c3ccc(C(=O)N4CCC(O)CC4)cc3Cl)c2)ccn1` [Compound 4, (4-(2′-(tert-butyl)-[3,4′-bipyridin]-5-yl)-3-chlorophenyl)(4-hydroxypiperidin-1-yl)methanone] reads at most 100 nM; that for `CC(C)(C)c1cc(-c2cccc(-c3ccc(C(=O)N4CCC(O)CC4)cc3Cl)c2)ccn1` [Compound 5, (3′-(2-(tert-butyl)pyridin-4-yl)-2-chloro-[1,1′-biphenyl]-4-yl)(4-hydroxypiperidin-1-yl)methanone], at most 100 nM.
The result for `CC(C)(C)c1cc(-c2ccnc(-c3ccc(C(=O)N4CCC(O)CC4)cc3Cl)n2)ccn1` [Compound 6, (4-(4-(2-(tert-butyl)pyridin-4-yl)pyrimidin-2-yl)-3-chlorophenyl)(4-hydroxypiperidin-1-yl)methanone] reads at most 1000 nM; that for `CC(C)(C)c1cc(-c2nccc(-c3ccc(C(=O)N4CCC(O)CC4)cc3Cl)n2)ccn1` [Compound 7, (4-(2-(2-(tert-butyl)pyridin-4-yl)pyrimidin-4-yl)-3-chlorophenyl)(4-hydroxypiperidin-1-yl)methanone], at most 1000 nM; that for `CC(C)(C)c1cc(-c2cc(-c3ccc(C(=O)N4CCC(O)CC4)cc3Cl)ncn2)ccn1` [Compound 8, (4-(6-(2-(tert-butyl)pyridin-4-yl)pyrimidin-4-yl)-3-chlorophenyl)(4-hydroxypiperidin-1-yl)methanone], at most 1000 nM.
As to `CC(C)(C)c1cc(-c2cncc(-c3ccc(C(=O)N4CCC(O)CC4)cc3Cl)n2)ccn1` [Compound 9, (4-(6-(2-(tert-butyl)pyridin-4-yl)pyrazin-2-yl)-3-chlorophenyl)(4-hydroxypiperidin-1-yl)methanone], the IC50 is at most 1000 nM.
The result for `COc1ncc(-c2ccnc(C(C)(C)C)c2)cc1-c1ccc(C(=O)N2CCC(O)CC2)cc1Cl` [Compound 10, (4-(2′-(tert-butyl)-6-methoxy-[3,4′-bipyridin]-5-yl)-3-chlorophenyl)(4-hydroxypiperidin-1-yl)methanone] reads at most 3000 nM; that for `CC(C)NC(=O)Nc1ccc(-c2cncc(-c3ccnc(C(C)(C)C)c3)c2)c(Cl)c1` [Compound 11, 1-(4-(2′-(tert-butyl)-[3,4′-bipyridin]-5-yl)-3-chlorophenyl)-3-isopropylurea], at most 1000 nM.
The result for `O=C(c1ccc(-c2cncc(-c3ccnc(C4OCCO4)c3)c2)c(Cl)c1)N1CCC(O)CC1` [Compound 12, (4-(2′-(1,3-dioxolan-2-yl)-[3,4′-bipyridin]-5-yl)-3-chlorophenyl)(4-hydroxypiperidin-1-yl)methanone] reads at most 1000 nM; that for `CC(C)(C)OC(=O)NC1CCCN(C(=O)c2ccc(-c3cncc(-c4ccnc(C(C)(C)C)c4)c3)c(Cl)c2)C1` (stereo not drawn) [Compound 13, tert-butyl (1-(4-(2′-(tert-butyl)-[3,4′-bipyridin]-5-yl)-3-chlorobenzoyl)piperidin-3-yl)carbamate], at most 500 nM; that for `CC(C)(C)c1cc(-c2cncc(-c3ccc(C(=O)N4CCCC(O)C4)cc3Cl)c2)ccn1` (stereo not drawn) [Compound 14, (4-(2′-(tert-butyl)-[3,4′-bipyridin]-5-yl)-3-chlorophenyl)(3-hydroxypiperidin-1-yl)methanone], at most 100 nM.
The result for `COC1CCCN(C(=O)c2ccc(-c3cncc(-c4ccnc(C(C)(C)C)c4)c3)c(Cl)c2)C1` (stereo not drawn) [Compound 15, (4-(2′-(tert-butyl)-[3,4′-bipyridin]-5-yl)-3-chlorophenyl)(3-methoxypiperidin-1-yl)methanone] reads at most 100 nM; that for `CC(C)OC(=O)Nc1ccc(-c2cncc(-c3ccnc(C(C)(C)C)c3)c2)c(Cl)c1` [Compound 16, isopropyl (4-(2′-(tert-butyl)-[3,4′-bipyridin]-5-yl)-3-chlorophenyl)carbamate], at most 500 nM.
For `CC(C)OC(=O)Nc1ccc(-c2cncc(-c3ccnc(C4OCCO4)c3)c2)c(Cl)c1` [Compound 20, Isopropyl (4-(2′-(1,3-dioxolan-2-yl)-[3,4′-bipyridin]-5-yl)-3-chlorophenyl)carbamate], the IC50 is at most 500 nM.
With `CC1(O)CCCN(C(=O)c2ccc(-c3cncc(-c4ccnc(C(C)(C)C)c4)c3)c(Cl)c2)C1` (stereo not drawn) [Compound 22, (4-(2′-(tert-butyl)-[3,4′-bipyridin]-5-yl)-3-chlorophenyl)(3-hydroxy-3-methylpiperidin-1-yl)methanone], the IC50 is at most 500 nM.
